Measured values taken from article doi:10.1101/2024.10.28.620768v1 (biorxiv, 2024).

Target: Cdr1 (Candida albicans, UniProt Q5ANA3)
Experiment: microscale thermophoresis, Alexa Fluor 647-labelled Cdr1, Hill fit
Type: binding

Chain of Cdr1 (Q5ANA3 whole entry): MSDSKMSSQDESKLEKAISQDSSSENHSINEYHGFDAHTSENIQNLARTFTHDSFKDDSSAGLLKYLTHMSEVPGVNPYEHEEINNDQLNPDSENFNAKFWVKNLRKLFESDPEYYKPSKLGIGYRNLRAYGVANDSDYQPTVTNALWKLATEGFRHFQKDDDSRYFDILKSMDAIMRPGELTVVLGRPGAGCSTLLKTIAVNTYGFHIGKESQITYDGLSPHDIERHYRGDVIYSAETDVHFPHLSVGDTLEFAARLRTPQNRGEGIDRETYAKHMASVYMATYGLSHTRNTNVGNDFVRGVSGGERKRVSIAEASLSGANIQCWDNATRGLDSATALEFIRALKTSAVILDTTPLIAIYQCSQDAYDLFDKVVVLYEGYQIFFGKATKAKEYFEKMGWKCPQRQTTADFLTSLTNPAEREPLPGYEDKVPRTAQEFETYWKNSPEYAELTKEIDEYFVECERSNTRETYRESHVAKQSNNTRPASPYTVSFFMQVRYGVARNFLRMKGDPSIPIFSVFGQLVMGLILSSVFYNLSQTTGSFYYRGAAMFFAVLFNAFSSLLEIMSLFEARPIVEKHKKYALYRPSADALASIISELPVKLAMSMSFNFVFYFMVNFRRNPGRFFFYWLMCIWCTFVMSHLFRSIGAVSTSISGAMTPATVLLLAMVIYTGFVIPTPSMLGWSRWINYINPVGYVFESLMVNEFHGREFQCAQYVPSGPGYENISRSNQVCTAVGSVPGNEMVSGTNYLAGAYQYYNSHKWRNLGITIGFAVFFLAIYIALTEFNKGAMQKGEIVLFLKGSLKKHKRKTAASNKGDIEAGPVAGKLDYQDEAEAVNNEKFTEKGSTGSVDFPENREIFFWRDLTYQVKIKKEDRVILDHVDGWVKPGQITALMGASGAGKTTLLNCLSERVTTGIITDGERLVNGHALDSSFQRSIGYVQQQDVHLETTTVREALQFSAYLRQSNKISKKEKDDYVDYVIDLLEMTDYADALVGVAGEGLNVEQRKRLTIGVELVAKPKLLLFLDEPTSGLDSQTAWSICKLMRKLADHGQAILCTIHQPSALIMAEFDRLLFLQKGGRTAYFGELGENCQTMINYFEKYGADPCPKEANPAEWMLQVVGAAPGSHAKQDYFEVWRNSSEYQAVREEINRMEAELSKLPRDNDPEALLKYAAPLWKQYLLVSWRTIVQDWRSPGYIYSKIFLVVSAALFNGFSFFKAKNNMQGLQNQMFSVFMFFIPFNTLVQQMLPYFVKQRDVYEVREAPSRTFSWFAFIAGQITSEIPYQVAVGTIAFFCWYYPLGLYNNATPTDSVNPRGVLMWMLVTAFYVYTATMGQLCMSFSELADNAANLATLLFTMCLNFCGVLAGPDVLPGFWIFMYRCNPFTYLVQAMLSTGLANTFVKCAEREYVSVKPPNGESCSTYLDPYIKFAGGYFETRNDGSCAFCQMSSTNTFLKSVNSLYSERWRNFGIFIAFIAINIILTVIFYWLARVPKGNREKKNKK

| Kd | SMILES |
| --- | --- |
| 32.8 ± 8.2 µM | O=C1OC2(c3cc(F)c(O)cc3Oc3cc(O)c(F)cc32)c2ccccc21 [Oregon Green 488] |
| 59.8 ± 7.1 µM | CCN=c1cc2oc3cc(NCC)c(C)cc3c(-c3ccccc3C(=O)OCC)c-2cc1C [Rhodamine 6G] |
